Reference: ChEMBL document CHEMBL5608182, “Synthesis and evaluation of neuroactive steroids with novel pharmacophore at C-21 let identify a compound with advantageous PK profile and higher EC50 and Emax as PAM on GABAA receptor” (Eur J Med Chem, 2024)

Tests used:
[1] = Metabolic stability in Sprague-Dawley rat liver microsomes assessed as intrinsic clearance at 1 uM preincubated for 10 mins followed by NADPH addition by LC-MS analysis; type: ADME, Microsome; settings: read-out: CLH
[2] = Metabolic stability in Sprague-Dawley rat liver microsomes assessed as compound remaining at 1 uM preincubated for 10 mins followed by NADPH addition by LC-MS analysis; type: ADME, Microsome; settings: read-out: Stability
[3] = Acid dissociation constant, pKa of the compound; type: physicochemical
Cytochrome P450 1A2 = biological target: T1, Cytochrome P450 1A2 (Homo sapiens, UniProt P05177); test: Inhibition of CYP1A2 (unknown origin); type: ADME
T1 sequence (P05177 whole entry): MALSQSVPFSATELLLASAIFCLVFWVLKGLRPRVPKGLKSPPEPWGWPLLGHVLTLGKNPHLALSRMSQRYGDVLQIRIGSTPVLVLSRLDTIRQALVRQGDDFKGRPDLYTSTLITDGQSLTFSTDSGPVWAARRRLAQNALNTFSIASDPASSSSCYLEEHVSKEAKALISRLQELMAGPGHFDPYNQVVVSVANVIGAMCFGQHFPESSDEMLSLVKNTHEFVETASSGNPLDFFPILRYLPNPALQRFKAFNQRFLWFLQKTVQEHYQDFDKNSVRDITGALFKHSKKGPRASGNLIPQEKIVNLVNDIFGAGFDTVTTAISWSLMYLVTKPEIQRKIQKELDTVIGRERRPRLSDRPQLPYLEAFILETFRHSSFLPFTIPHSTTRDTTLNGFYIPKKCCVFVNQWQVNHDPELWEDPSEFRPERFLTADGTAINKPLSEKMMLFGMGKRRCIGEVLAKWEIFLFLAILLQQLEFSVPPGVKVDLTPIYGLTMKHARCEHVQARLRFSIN

Cytochrome P450 2B6 = biological target: T2, Cytochrome P450 2B6 (Homo sapiens, UniProt P20813); test: Inhibition of CYP2B6 (unknown origin); type: ADME
T2 sequence (P20813 whole entry): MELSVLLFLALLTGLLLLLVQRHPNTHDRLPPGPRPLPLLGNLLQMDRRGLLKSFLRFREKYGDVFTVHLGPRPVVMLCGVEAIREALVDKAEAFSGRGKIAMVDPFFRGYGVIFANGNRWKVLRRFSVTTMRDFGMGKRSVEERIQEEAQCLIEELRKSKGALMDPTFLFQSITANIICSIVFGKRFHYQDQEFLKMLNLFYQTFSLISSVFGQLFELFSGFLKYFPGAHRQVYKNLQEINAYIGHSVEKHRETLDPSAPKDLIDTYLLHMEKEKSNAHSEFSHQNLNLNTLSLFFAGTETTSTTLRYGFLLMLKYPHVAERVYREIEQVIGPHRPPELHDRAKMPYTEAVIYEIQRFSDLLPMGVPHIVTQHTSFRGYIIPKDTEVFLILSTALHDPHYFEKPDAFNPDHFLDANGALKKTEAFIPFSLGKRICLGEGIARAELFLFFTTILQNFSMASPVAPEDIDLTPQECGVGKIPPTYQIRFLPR

Cytochrome P450 2C9 = Cytochrome P450 2C9 (Homo sapiens, UniProt P11712); test: Inhibition of CYP2C9 (unknown origin); type: ADME
Cytochrome P450 2D6 = Cytochrome P450 2D6 (Homo sapiens, UniProt P10635); test: Inhibition of CYP2D6 (unknown origin); type: ADME
Cytochrome P450 3A4 = Cytochrome P450 3A4 (Homo sapiens, UniProt P08684); test: Inhibition of CYP3A4 (unknown origin); type: ADME
[4] = MRTlast in male Sprague-Dawley rat at 6.1 micromol/kg, iv administered as single dose and measured upto 24 hrs by LC-MS/MS analysis; type: ADME, organism-based; settings: in vivo, dose 6.1 µmol/kg
[5] = Half life in male Sprague-Dawley rat at 24.4 micromol/kg, IG administered as single dose and measured upto 24 hrs by LC-MS/MS analysis; type: ADME; settings: in vivo, po, dose 24.4 µmol/kg
[6] = MRTlast in male Sprague-Dawley rat at 24.4 micromol/kg, IG administered as single dose and measured upto 24 hrs by LC-MS/MS analysis; type: ADME; settings: in vivo, po, dose 24.4 µmol/kg
[7] = Initial drug concentration in male Sprague-Dawley rat at 6.1 micromol/kg, iv administered as single dose and measured upto 24 hrs by LC-MS/MS analysis; type: ADME, organism-based; settings: in vivo, dose 6.1 µmol/kg
[8] = Cmax in male Sprague-Dawley rat at 24.4 micromol/kg, IG administered as single dose and measured upto 24 hrs by LC-MS/MS analysis; type: ADME; settings: in vivo, po, dose 24.4 µmol/kg
[9] = biological target: Gamma-aminobutyric acid receptor subunit alpha-4/beta3/delta (Homo sapiens) (UniProt P28472+P48169+O14764); test: Positive allosteric modulation of extrasynaptic alpha4beta3delta GABA-A receptor (unknown origin) transfected in CHO cells assessed as potentiation of GABA-induced peak current amplitude by measuring maximal efficacy at 0.01 to 10 uM at -80 mV holding potential preincubated for 30 secs followed by GABA stimulation for 2 secs by manual patch assay relative to control; type: cell-based; settings: filed as positive allosteric modulator, dose 0.01-10 µM, time 32.0 sec
[10] = Drug concentration in Sprague-Dawley rat brain at 24.4 micromol/kg, IG measured after 2 hrs by LC-MS/MS analysis; type: ADME, tissue-based; settings: in vivo, po, dose 24.4 µmol/kg

Chain of Cytochrome P450 2D6 (P10635 whole entry): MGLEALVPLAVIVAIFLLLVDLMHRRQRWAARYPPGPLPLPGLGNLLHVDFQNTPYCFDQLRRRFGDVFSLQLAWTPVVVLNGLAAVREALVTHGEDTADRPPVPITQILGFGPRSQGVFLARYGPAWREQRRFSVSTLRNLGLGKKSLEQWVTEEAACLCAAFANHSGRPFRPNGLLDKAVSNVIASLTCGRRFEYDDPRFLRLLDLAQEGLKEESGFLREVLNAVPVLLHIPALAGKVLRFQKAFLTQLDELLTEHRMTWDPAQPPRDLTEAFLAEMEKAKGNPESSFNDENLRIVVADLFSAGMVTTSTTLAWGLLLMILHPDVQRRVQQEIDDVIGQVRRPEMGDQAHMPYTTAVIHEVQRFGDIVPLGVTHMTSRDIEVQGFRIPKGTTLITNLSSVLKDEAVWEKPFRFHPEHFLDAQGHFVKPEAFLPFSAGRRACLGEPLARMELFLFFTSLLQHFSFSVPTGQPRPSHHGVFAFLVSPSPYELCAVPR
Chain of Cytochrome P450 3A4 (P08684 whole entry): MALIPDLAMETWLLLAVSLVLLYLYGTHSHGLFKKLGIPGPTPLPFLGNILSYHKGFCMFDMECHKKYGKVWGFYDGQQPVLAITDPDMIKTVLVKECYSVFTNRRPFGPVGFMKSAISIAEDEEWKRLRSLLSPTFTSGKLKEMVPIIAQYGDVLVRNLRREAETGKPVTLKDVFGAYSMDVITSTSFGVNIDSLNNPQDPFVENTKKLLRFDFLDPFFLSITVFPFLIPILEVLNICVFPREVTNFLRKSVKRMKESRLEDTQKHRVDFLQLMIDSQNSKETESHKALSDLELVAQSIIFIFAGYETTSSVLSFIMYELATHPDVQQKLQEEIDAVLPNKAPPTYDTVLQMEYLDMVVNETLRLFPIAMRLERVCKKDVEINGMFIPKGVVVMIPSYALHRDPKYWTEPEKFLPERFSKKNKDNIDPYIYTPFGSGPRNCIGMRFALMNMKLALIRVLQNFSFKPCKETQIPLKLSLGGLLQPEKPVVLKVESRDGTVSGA
Chain of Cytochrome P450 2C9 (P11712 whole entry): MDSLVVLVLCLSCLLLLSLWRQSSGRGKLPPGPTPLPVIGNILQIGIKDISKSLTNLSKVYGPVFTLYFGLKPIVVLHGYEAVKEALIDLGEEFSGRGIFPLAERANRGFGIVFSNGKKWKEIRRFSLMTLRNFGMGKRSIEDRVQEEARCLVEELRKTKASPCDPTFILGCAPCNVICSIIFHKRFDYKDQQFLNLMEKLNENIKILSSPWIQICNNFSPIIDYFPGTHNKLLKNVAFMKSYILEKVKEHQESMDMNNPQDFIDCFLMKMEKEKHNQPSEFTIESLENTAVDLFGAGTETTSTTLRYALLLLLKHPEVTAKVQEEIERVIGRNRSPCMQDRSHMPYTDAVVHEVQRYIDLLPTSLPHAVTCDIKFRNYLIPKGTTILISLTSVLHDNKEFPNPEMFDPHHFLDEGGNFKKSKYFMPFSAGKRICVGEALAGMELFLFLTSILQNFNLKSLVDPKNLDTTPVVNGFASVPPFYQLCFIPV

SMILES	CLint scaled at 1 µM [1]	remaining at 1 µM [2]	pKa [3]	IC50 (Cytochrome P450 1A2)	IC50 (Cytochrome P450 2B6)	IC50 (Cytochrome P450 2C9)	IC50 (Cytochrome P450 2D6)	IC50 (Cytochrome P450 3A4)	MRT last at 24 h [4]	half-life [5]	MRT last at 24 h [6]	C0 at 24 h [7]	Cmax [8]	Emax [9]	Ct [10]
C[C@@]1(O)CC[C@H]2[C@H](CC[C@@H]3[C@@H]2CC[C@]2(C)[C@@H](C(=O)Cn4cnn(-c5cc(F)nc(F)c5)c4=O)CC[C@@H]32)C1	23 mL/min/kg	68%	> 12	> 30 µM	> 30 µM	> 30 µM	> 30 µM	> 30 µM	4.75 h	6.58 h	7.74 h	1870 nM	2530 nM	1070%	3404 nmol/kg
C[C@@]1(O)CC[C@H]2[C@H](CC[C@@H]3[C@@H]2CC[C@]2(C)[C@@H](C(=O)Cn4cc(C#N)cn4)CC[C@@H]32)C1 [ZURANOLONE]	51.8 mL/min/kg	40%	> 12	> 30 µM	> 30 µM	> 30 µM	> 30 µM	> 30 µM	2.12 h	3.8 h	4.46 h	3440 nM	2290 nM	1040%	2220 nmol/kg
